Measurements: patent US11530244B2, “Cyclic polypeptides for PCSK9 inhibition” (priority 2018, dated 2022)
Starred links: 1 amine or outer side, 2 acyl side, 3 side chain; linkers in the order of their positions; H or OH if unused. Positions of bridges follow the written chain, without caps; N, C: chain ends. Non-standard residues stand in square brackets, D forms with d. Residues, ends and D or L forms follow the SMILES beside them. Phe(3-CH2NH2) = O=C([C@H](Cc1cccc(CN[*:3])c1)N[*:1])[*:2]; NHCH2(1,3-C6H4)CH2CO = O=C(Cc1cccc(CN[*:1])c1)[*:2]; Phe(4-COOH) = N[C@@H](Cc1ccc(C(=O)O)cc1)C(=O)O; Trp(5-F) = N[C@@H](Cc1c[nH]c2ccc(F)cc12)C(=O)O; X30 = COc1ccc(C[C@H](N[*:1])C(=O)[*:2])cc1Cl; X11 = COc1ccc(C[C@H](N[*:1])C(=O)[*:2])cc1C; Asp(3,3-Me2) = CC(C)(C(=O)O)[C@H](N)C(=O)O; X17 = O=C(CCSCc1ccc(CSCCN[*:1])cc1)[*:2]; Pro(4S-NH2) = N[C@@H]1CN[C@H](C(=O)O)C1; X4 = O=C(CCSCc1cccc(CSCCN[*:1])c1)[*:2]; Orn(N3) = [N-]=[N+]=NCCC[C@H](N)C(=O)O; X23 = CC[C@@]1(C(=O)[*:2])CCCN1[*:1]; mXylylene = c1cc(C[*:1])cc(C[*:2])c1; NMeY = CN[C@@H](Cc1ccc(O)cc1)C(=O)O; X47 = O=C(O)CCCCC(N[*:1])C(=O)[*:2]; d(aThr) = C[C@@H](O)[C@@H](N)C(=O)O; X21 = O=C(Cc1cccc(CN[*:2])c1)[*:1]; X39 = c1cc(CCSCN[*:2])cc(C[*:1])c1; X7 = O=C(Cc1ccc(CN[*:1])cc1)[*:2]; hLys = NCCCCC[C@H](N)C(=O)O; αMeP = C[C@@]1(C(=O)O)CCCN1; Ava = NCCCCC(=O)O; Mpa = O=C(O)CCS

Experiments:
[1] = biological target: human PCSK9 / human LDLR EGFa domain interaction (Homo sapiens (Human), UniProt Q8NBP7); assay: TR-FRET assay of inhibition of the PCSK9-LDLR protein-protein interaction; type: binding; conditions: TR-FRET, 20 nM human PCSK9, 20 nM human LDLR EGFa domain, 2 hours room temperature; read-out: IC50
human PCSK9 / human LDLR EGFa domain interaction, sequence (Q8NBP7 153-692): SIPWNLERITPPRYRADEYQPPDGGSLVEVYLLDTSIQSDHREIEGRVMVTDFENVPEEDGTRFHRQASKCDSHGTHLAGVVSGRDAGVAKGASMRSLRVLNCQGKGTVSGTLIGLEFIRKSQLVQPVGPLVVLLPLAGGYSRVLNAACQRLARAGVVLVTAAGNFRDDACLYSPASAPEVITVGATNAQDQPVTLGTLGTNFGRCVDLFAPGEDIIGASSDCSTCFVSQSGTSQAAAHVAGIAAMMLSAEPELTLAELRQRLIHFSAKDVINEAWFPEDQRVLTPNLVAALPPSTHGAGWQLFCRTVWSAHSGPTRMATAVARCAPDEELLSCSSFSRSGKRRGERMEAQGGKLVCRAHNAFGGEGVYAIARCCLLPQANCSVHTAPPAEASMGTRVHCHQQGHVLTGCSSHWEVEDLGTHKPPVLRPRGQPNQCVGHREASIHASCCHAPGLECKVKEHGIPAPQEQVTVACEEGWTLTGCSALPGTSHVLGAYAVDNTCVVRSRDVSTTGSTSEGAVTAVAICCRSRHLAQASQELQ
human PCSK9 / human LDLR EGFa domain interaction, sequence (Q8NBP7 31-152 partner): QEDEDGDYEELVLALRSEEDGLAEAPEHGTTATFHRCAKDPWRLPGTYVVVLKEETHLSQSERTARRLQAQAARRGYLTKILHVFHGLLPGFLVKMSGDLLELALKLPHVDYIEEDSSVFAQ
How it was run: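 Avitag-biotinylated human PCSK9 (20 nM) and his-tagged human LDLR EGFa domain (20 nM) were incubated with 5 nM Ulight streptavidin and 5 nM europium anti-6×His for 2 h at room temperature. Buffer: 50 mM HEPES, 150 mM NaCl, 5 mM CaCl2, 0.01% BSA, 0.01% P20. IC50 from 4-parameter fit of dose-response.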

PCSK9 = PCSK9 (Homo sapiens (Human), UniProt Q8NBP7); assay: PCSK9 Alexa FRET Standard assay (displacement of AlexaFluor647 tagged cyclic peptide Reagent A); type: binding; conditions: PCSK9 Alexa FRET Standard assay, 0.5 nM PCSK9, 20 nM AF cyclic peptide Reagent A; read-out: IC50
PCSK9, sequence (Q8NBP7 153-692): as the sequence (Q8NBP7 153-692) above
How it was run: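 TR-FRET displacement: 0.5 nM biotinylated PCSK9 with 1.25 nM Strep-Eu and 20 nM AlexaFluor-tagged cyclic peptide (final) in 50 mM HEPES pH 7.4, 0.15 M NaCl, 5 mM CaCl2, 0.01% BSA, 0.01% P20, ≥2 h at room temperature. IC50 from sigmoidal fit, converted to Ki via peptide KD; falling Eu counts flagged false positives.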

| Structure (SMILES) | IC50 [1] [µM] | IC50 (PCSK9) [µM] |
| --- | --- | --- |
| CC[C@@]12CCCN1C(=O)[C@H](Cc1ccc(O)cc1)NC(=O)[C@H](Cc1cnc[nH]1)NC(=O)[C@H](CC(=O)O)NC(=O)[C@H](Cc1c[nH]c3ccc(F)cc13)NC(=O)[C@H](Cc1c[nH]c3ccc(F)cc13)NC(=O)CNC(=O)[C@H](CCCCN)NC(=O)CCSCc1cccc(c1)CSC[C@@H](C(N)=O)NC2=O [Compound 378] ([Mpa]KG[Trp(5-F)][Trp(5-F)]DHY[X23]C-NH2; linker 1-10 via mXylylene) | 0.0001 to 0.1 | 0.00011 to 0.1 |
| COc1ccc(C[C@@H]2NC(=O)[C@H](Cc3cnc[nH]3)NC(=O)[C@H](CC(=O)O)NC(=O)[C@H](Cc3c[nH]c4ccc(F)cc34)NC(=O)[C@H](Cc3c[nH]c4ccc(F)cc34)NC(=O)[C@@H](C)NC(=O)CCCCNC(=O)c3ccc(cc3)C[C@@H](C(N)=O)NC(=O)[C@]3(C)CCCN3C2=O)cc1 [Compound 380] ([Ava][dA][Trp(5-F)][Trp(5-F)]DHY(Me)[αMeP][Phe(4-COOH)]-NH2; lactam N-9) | 21 to 50 | 21 to 50 |
| COc1ccc(C[C@@H]2NC(=O)[C@H](Cc3cnc[nH]3)NC(=O)[C@H](CC(=O)O)NC(=O)[C@H](Cc3c[nH]c4ccc(F)cc34)NC(=O)[C@H](Cc3c[nH]c4ccc(F)cc34)NC(=O)[C@@H](C)NC(=O)[C@H](NC(C)=O)Cc3cn(nn3)-c3ccc(cc3)C[C@@H](C(N)=O)NC(=O)[C@]3(C)CCCN3C2=O)cc1 [Compound 381] | 0.1 to 1 | 1 to 12.1 |
| COc1ccc(C[C@@H]2NC(=O)[C@H](CCC(=O)O)NC(=O)[C@@H]3C[C@H](N)CN3C(=O)[C@H](Cc3c[nH]c4ccc(F)cc34)NC(=O)[C@H](Cc3c[nH]c4ccc(F)cc34)NC(=O)[C@@H](C)NC(=O)[C@H](C)NC(=O)CCSCc3ccc(cc3)CSCCNC(=O)[C@]3(C)CCCN3C2=O)cc1 [Compound 382] (cyclo(A[dA][Trp(5-F)][Trp(5-F)][Pro(4S-NH2)]EY(Me)[αMeP][X17])) | 0.0001 to 0.1 | 0.00011 to 0.1 |
| C[C@H]1NC(=O)[C@H](CCCCN)NC(=O)CCSCc2cccc(c2)CSCCNC(=O)[C@]2(C)CCCN2C(=O)[C@H](Cc2ccc(O)cc2)N(C)C(=O)[C@H](Cc2c[nH]cn2)NC(=O)[C@H](C(C)(C)C(=O)O)NC(=O)[C@H](Cc2c[nH]c3ccc(F)cc23)NC(=O)[C@H](Cc2c[nH]c3ccc(F)cc23)NC1=O [Compound 383] (cyclo(H[NMeY][αMeP][X4]K[dA][Trp(5-F)][Trp(5-F)][Asp(3,3-Me2)])) | 0.0001 to 0.1 | 0.1 to 1 |
| COc1ccc(C[C@@H]2NC(=O)[C@@H]([C@@H](C)O)NC(=O)[C@H](CC(=O)O)NC(=O)[C@H](Cc3c[nH]c4ccc(F)cc34)NC(=O)[C@H](Cc3cccc(CN)c3)NC(=O)[C@@H](C)NC(=O)[C@H](C)NC(=O)CCSCc3cccc(c3)CSCCNC(=O)[C@]3(C)CCCN3C2=O)cc1 [Compound 384] (cyclo(A[dA][Phe(3-CH2NH2)][Trp(5-F)]D[d(aThr)]Y(Me)[αMeP][X4])) | 21 to 50 | 21 to 50 |
| COc1ccc(C[C@@H]2NC(=O)[C@H](Cc3c[nH]cn3)NC(=O)[C@H](CC(=O)O)NC(=O)[C@H](Cc3c[nH]c4ccc(F)cc34)NC(=O)[C@H](Cc3c[nH]c4ccc(F)cc34)NC(=O)[C@@H](C)NC(=O)[C@H](CCCCN)NC(=O)CCSCc3cccc(c3)CSCCNC(=O)[C@]3(C)CCCN3C2=O)cc1Cl [Compound 386] (cyclo(DH[X30][αMeP][X4]K[dA][Trp(5-F)][Trp(5-F)])) | 0.0001 to 0.1 | 0.1 to 1 |
| COc1ccc(C[C@@H]2NC(=O)[C@H](Cc3c[nH]cn3)NC(=O)[C@H](CC(=O)O)NC(=O)[C@H](Cc3c[nH]c4ccc(F)cc34)NC(=O)[C@H](Cc3c[nH]c4ccc(F)cc34)NC(=O)[C@@H](C)NC(=O)[C@H](CCCCN)NC(=O)CCSCc3cccc(c3)CSCCNC(=O)[C@]3(C)CCCN3C2=O)cc1C [Compound 387] (cyclo(DH[X11][αMeP][X4]K[dA][Trp(5-F)][Trp(5-F)])) | 0.0001 to 0.1 | 0.1 to 1 |
| COc1ccc(C[C@@H]2NC(=O)C(CCCCC(=O)O)NC(=O)[C@@H]3C[C@H](N)CN3C(=O)[C@H](Cc3c[nH]c4ccc(F)cc34)NC(=O)[C@H](Cc3c[nH]c4ccc(F)cc34)NC(=O)[C@@H](C)NC(=O)[C@H](CCCN=[N+]=[N-])NC(=O)CCSCc3cccc(c3)CCSCNC(=O)[C@]3(C)CCCN3C2=O)cc1 (stereo partly drawn) [Compound 388] ([Mpa][Orn(N3)][dA][Trp(5-F)][Trp(5-F)][Pro(4S-NH2)][X47]Y(Me)[αMeP]; linker 1-C via X39) | 0.0001 to 0.1 | 0.1 to 1 |
| COc1ccc(C[C@@H]2NC(=O)[C@H](Cc3cnc[nH]3)NC(=O)[C@H](CC(=O)O)NC(=O)[C@H](Cc3c[nH]c4ccc(F)cc34)NC(=O)[C@H](Cc3c[nH]c4ccc(F)cc34)NC(=O)[C@@H](C)NC(=O)Cc3cccc(c3)CNC(=O)c3ccc(cc3)C[C@@H](C(N)=O)NC(=O)[C@]3(C)CCCN3C2=O)cc1 [Compound 390] ([NHCH2(1,3-C6H4)CH2CO][dA][Trp(5-F)][Trp(5-F)]DHY(Me)[αMeP][Phe(4-COOH)]-NH2; lactam N-9) | 0.0001 to 0.1 | 0.1 to 1 |
| COc1ccc(C[C@@H]2NC(=O)[C@H](Cc3cnc[nH]3)NC(=O)[C@H](CC(=O)O)NC(=O)[C@H](Cc3c[nH]c4ccc(F)cc34)NC(=O)[C@H](Cc3c[nH]c4ccc(F)cc34)NC(=O)[C@@H](C)NC(=O)Cc3ccc(cc3)CNC(=O)c3ccc(cc3)C[C@@H](C(N)=O)NC(=O)[C@]3(C)CCCN3C2=O)cc1 [Compound 391] ([X7][dA][Trp(5-F)][Trp(5-F)]DHY(Me)[αMeP][Phe(4-COOH)]-NH2; lactam N-9) | 0.0001 to 0.1 | 0.1 to 1 |
| COc1ccc(C[C@@H]2NC(=O)[C@H](Cc3cnc[nH]3)NC(=O)[C@H](CC(=O)O)NC(=O)[C@H](Cc3c[nH]c4ccc(F)cc34)NC(=O)[C@H](Cc3c[nH]c4ccc(F)cc34)NC(=O)[C@H](C)NC(=O)[C@H](NC(C)=O)CCc3cn(nn3)-c3ccc(cc3)C[C@@H](C(N)=O)NC(=O)[C@]3(C)CCCN3C2=O)cc1 [Compound 392] | 0.0001 to 0.1 | 0.1 to 1 |
| COc1ccc(C[C@@H]2NC(=O)[C@H](Cc3cnc[nH]3)NC(=O)[C@H](CC(=O)O)NC(=O)[C@H](Cc3c[nH]c4ccc(F)cc34)NC(=O)[C@H](Cc3c[nH]c4ccc(F)cc34)NC(=O)[C@@H](C)NC(=O)[C@H](CCCCN)NC(=O)[C@@H](NC(C)=O)CCCCCNC(=O)c3ccc(cc3)C[C@@H](C(N)=O)NC(=O)[C@]3(C)CCCN3C2=O)cc1 [Compound 393] (Ac-[hLys]K[dA][Trp(5-F)][Trp(5-F)]DHY(Me)[αMeP][Phe(4-COOH)]-NH2; lactam 1-10) | 0.0001 to 0.1 | 0.1 to 1 |
| COc1ccc(C[C@@H]2NC(=O)[C@H](Cc3cnc[nH]3)NC(=O)[C@H](CC(=O)O)NC(=O)[C@H](Cc3c[nH]c4ccc(F)cc34)NC(=O)[C@H](Cc3c[nH]c4ccc(F)cc34)NC(=O)[C@@H](C)NC(=O)[C@H](NC(C)=O)CCCCNC(=O)Cc3cccc(c3)CNC(=O)C[C@@H](C(N)=O)NC(=O)[C@]3(C)CCCN3C2=O)cc1 [Compound 394] (Ac-[dK][dA][Trp(5-F)][Trp(5-F)]DHY(Me)[αMeP]D-NH2; linker 1-9 via X21) | 0.1 to 1 | 0.1 to 1 |
| COc1ccc(C[C@@H]2NC(=O)[C@H](Cc3cnc[nH]3)NC(=O)[C@H](CC(=O)O)NC(=O)[C@H](Cc3c[nH]c4ccc(F)cc34)NC(=O)[C@H](Cc3c[nH]c4ccc(F)cc34)NC(=O)[C@H](C)NC(=O)[C@H](NC(C)=O)CCCc3cn(nn3)-c3ccc(cc3)C[C@@H](C(N)=O)NC(=O)[C@]3(C)CCCN3C2=O)cc1 [Compound 395] | 21 to 50 | 21 to 50 |
